What all share (format): physicochemical
The nature of series [1]: Time-resolved fluorescence lifetime (TCSPC). As to conditions: one-exponential decay, pulsed excitation at 352 nm, maximum emission wavelength. How it is done:
Fluorescence lifetimes were determined by using the Time-Correlation Single Photon Counting (TCSPC) accessory to the FluroMax-4 (Horiba, NJ). NanoLED pulse light sources at wavelengths of 352 nm and 390 nm were used for excitation. For each decay curve, 10,000 photons were collected. Fluorescence lifetime decays were fitted with an exponential series according to equation 1 below:
[formula] where F(t) is the lifetime decay function with respect to time t, Ti is the lifetime value of the emitting species, A is the background offset, and Bi is the pre-exponential function of the emitting species. The method of least squares was used to quantify χ^2 based on the decay data and the fitting function, where χ^2 values smaller than 1.2 indicates a good fit; and values above 1.2 indicate need for multiple exponential fitting in equation 1. If the lifetime decay is dominated by one emitting species, the equation can be simplified to include only the first two terms. One exponential fitting is good for TPA based fluorophores. However, for DPR based fluorophores, only three exponential fitting gives a χ^2 smaller than 1.2. E. Computational Modeling
(§1) Absorbance Spectra were recorded on Tecan Infinite M200 Pro UV-vis spectroscopy, and fluorescence spectra were recorded on Horiba FluoroMax-4 fluorospectroscopy at concentrations below 0.1 O.D. unless otherwise indicated. Quantum Yields were measured on the Quantum φ Integrating Sphere accessory to the FluoroMax-4, while lifetime measurements were determined through the Time-Correlation Single Photon Counting (TCSPC) accessory to the FluroMax-4. TCSPC was utilized in conjunction with NanoLED pulsed diode light source with peak excitation wavelength at 352 nm and at 10,000 counts peak preset. Emission was collected at the fluorescence λmax, unless otherwise indicated. For all pH-dependence experiments, sample pH was adjusted with sulfuric acid or sodium hydroxide. For all chloride-dependent quenching experiments, magnesium chloride hexahydrate (Sigma Aldrich) was used.
Fluorescence lifetime decays were fitted with an exponential series according to equation 5 below:
[formula] Where F(t) is the lifetime decay function with respect to time t, Ti is the lifetime value of the emitting species, A is the background offset, and Bi is the pre-exponential function of the emitting species. If the lifetime decay is dominated by one emitting species, the equation can be simplified to include only the first two terms. Bi measures the relative amplitude of the specified fluorophore, where the percent contribution of the fluorophore to the lifetime decay, f, is derived from equation 6:
[formula] The method of least squares was used to quantify χ^2 based on the decay data and the fitting function, where χ^2 values under 1.2 indicates a good fit, and values above 1.2 indicate need for additional terms in equation 5. Typically, an additional exponential term was necessary to improve the χ^2 value and account for the presence of a negligible 6 ns species, deemed to stem from by-products of CFD synthesis, impurities, or CFD dimers. Since the contribution from this species was minor, often less than 5%, it was not included in lifetime analysis.

Series [2] is described as follows: Fluorescence spectra, absorbance and quantum yield (spectrofluorometer, integration sphere). Conditions: for Φ (quantum yield) / λem (maximum emission wavelength) / λex (maximum excitation wavelength) / ϵ (extinction coefficiency): Table III. How it is done:
Fluorescence spectra were recorded by a Horiba FluoroMax-4 spectrofluorometer. All polymer and small molecule samples were measured at a concentration of 2% w/w in 1,4-dioxane or DI water and a slit size of 1 nm by 1 nm unless otherwise specified. Quantum yields were also determined on the same spectrofluorometer by using a Quantum-φ integration sphere at the same concentration and slit size with the blank solvent as the reference. ^1H-NMR, ^13C-NMR were performed on a JNM ECS 300 spectrometer using DMSO-d6 or D2O as solvents. Attenuated total reflection Fourier transform infrared (ATR-FTIR) spectra were collected with a Bruker V70 spectrometer using BPLP films. A Shimadzu HPLC-MS system with a Phenomenex Kinetex 2.6u XB-C18 100 mm×2.9 mm column, a SPD M20A PDA detector and a RF-20AXS fluorescence detector (Ex. 360 nm and Em. 430 nm) was used to characterize the structures of fluorophores as well. The mobile phase was a gradient of DI water and acetonitrile with 0-6 min 2% acetonitrile, 6-12 min 2%-30% acetonitrile, and 12-15 min 2% acetonitrile. The flow rate was 0.15 ml/min. Electrospray ionization mass spectroscopy (ESI-MS) was performed with a positive voltage of 4.5 kV and negative mode voltage −4.0 kV and a CDL temperature of 200° C. The analysis of the degradation products of BPLPs were conducted by immersing BPLPs in 1M K2CO3 solution at 37° C. for 24 hours. After degradation, the solutions were neutralized by 1N HCl solution to pH 7 and characterized by HPLC-MS as described above.
(§2) Fluorescence spectra were recorded by a Horiba FluoroMax-4 spectrofluorometer. All samples were measured at a concentration corresponding to an optical density of 0.1 in water and a slit size of 1 nm by 1 nm unless specified. Quantum yields were also determined on same spectrofluorometer by using a Quantum-φ integration sphere at samples' maximum excitation wavelength and at an increment of 0.3 nm. Photostability studies were done by continuously exciting samples at their maximum excitation wavelength and monitoring at the maximum emission wavelength.
(§3) Fluorescence spectra were recorded on a Horiba FluoroMax-4 spectrofluorometer (Horiba Scientific, Edison N.J.). All polymer and samples were characterized at a concentration of 2 wt % in 1,4-dioxane and a slit size of 1 nm by 1 nm unless otherwise specified. The fluorescence properties of small molecule dyes were also measure in 2 wt % DI water solutions at same conditions as polymer solutions. BPLPs were also degraded in 1M K2CO3 solution at 37° C. for 24 hours and then neutralized with 1N HCl solution to pH7. The resulting degradation solutions were subject to further PL characterizations. Quantum yields were also determined on the same spectrofluorometer by using a Quantum-φ integration sphere (Horiba Scientific, Edison N.J.) at the same concentration and slit size with the blank solvent as the reference. Photostability of small molecules and polymers were determined by monitoring the emission intensity decay at their max. Excitation and emission wavelengths over 3 hours of continuous lumination in the spectrofluorometer.
as §1

Series [3] in a line: Photostability under continuous excitation for 3 hours. Conditions: 3 hours continuous excitation. How it is done: as §2, §3
Photostability of CFDs was characterized thereafter, since traditional organic dyes suffer from photobleaching. Various CFDs were tested under their maximum excitation and emission wavelengths for 3 hours, and the photoluminescence was normalized to the initial intensity.

Series [4] in a line: pH dependence of fluorescence / pH sensing. As for the experimental part: as §1
pH Dependence of CA-Cys Fluorescence. Of all solvent and environmental factors that affect fluorescence, CA-Cys appeared to display the greatest sensitivity to changes in pH. […] From a detailed analysis of FIG. 13, four correlations were observed. Fluorescence properties of CA-Cys were invariable from high basicity to a pH of 4.84, from which the excitation λmax began to red-shift from 350 nm, emission λmax began to red-shift from 418 nm, maximum fluorescence intensity began to decrease, and quantum yield began to decrease. As acidity was increased, all four trends continued until pH 2.44, from which the excitation λmax plateaued at 365 nm, emission plateaued at 445 nm, and fluorescence intensity and quantum yield both experienced a short local plateau. Similarly, Stokes shift increased from 67 nm to 80 nm in high acidity. Lastly, absorbance λmax shifted similarly to that of the maximum excitation, while absorbance intensities remained relatively constant. […] All of these patterns were reminiscent of a pH-dependent equilibrium, thus the predominant mechanism of intensity quenching and bathochromic shifts was hypothesized to be attributed to changes in protolytic equilibria. The noticeably linear quenching of intensities past pH 1.63 is discussed with respect to lifetime analysis herein below.
There is a predictable, linear increase in intensity from pH 3 to 4.5. Furthermore, emission collected at a fixed 445 nm is shown in FIG. 15 to be an isobestic point where intensities are independent of pH (up to pH 1), which should greatly improve the functionality of CA-Cys as a pH sensor. In other words, utilizing 445 nm as a dual-wavelength reference point allows for background subtraction and normalization with respect to absorbance or concentration. […] Furthermore, I418 nm/I445 nm increases linearly in the region of pH 3 to 4.5 for accurate determination of pH within this region, plotted and fitted with an R^2 value of 0.982. To sum up, I418 nm/I445 nm values near 1.6 indicate pH above 4.5, values below 0.7 indicate highly acidic environments below pH 3, while any intermediate I418 nm/I445 nm values can determine the exact pH with good accuracy. It is important to note that CA-Cys fluorescence is in accordance with Kasha's rule, i.e. fluorescence occurs from the lowest excited state, S1→S0, thus the emission λmax is independent of the excitation wavelength, and a fluorescence excitation scan at a fixed emission of 418 nm or 445 nm would provide the maximum fluorescence intensity for that emission wavelength. Also of importance is the reliable range of the isobestic point, which is broken at high acidities (noticeably below pH 1) due to dynamic quenching effects.

The source of these data is patent publication US10648917B2, “Luminescent compositions and applications thereof” (THE PENN STATE RESEARCH FOUNDATION, priority 2015, dated 2020).

On to `CCN(CC)c1ccc2c(-c3ccccc3C(=O)O)c3ccc(=[N+](CC)CC)cc-3oc2c1.[Cl-]` [Rhodamine B, reference compound], for which the “fluorescence lifetime τ” value in series [1] turned out to be 1.75 ns.
Regarding `CCCN1C(=O)C=C(C(=O)O)CC1=O` [CA-Propylamine], in series [2] (CFD dyes), the “Shifting (emission shifting with excitation wavelength)” value is given as “Yes”. In series [2], the “Φ (quantum yield)” value is 24.6%, the “λem (maximum emission wavelength)” value stood at 424 nm, the “λex (maximum excitation wavelength)” value was found to be 359 nm and the “ϵ (extinction coefficiency)” value is 6.6 M⁻¹ cm⁻¹. Further, in series [2] (representative CFDs, Table I), the “Max. Em. Wavelength” value worked out at 422 nm, the “Max. Ex. Wavelength” value amounted to 359 nm and the “Quantum Yield” value came to 22.1%. For the same compound, the “photobleaching relative to Fluorescein and Rhodamine B” value in series [3] was “less stable”. Besides, in series [4], the pH sensitivity result is on record as “PH insensitive”.
Take `O=C(O)C1=CC(=O)N(C(CC2=c3ccccc3=NC2)C(=O)O)C(=O)C1` (stereo not shown) [CA-Tryptophan]: in series [2], the “Φ (quantum yield)” value is listed as 5%, the “λem (maximum emission wavelength)” value was 445 nm, the “λex (maximum excitation wavelength)” value stood at 386 nm and the “ϵ (extinction coefficiency)” value worked out at 14.6 M⁻¹ cm⁻¹.
As for `CC1Oc2cc(C(=O)O)cc(=O)n2C1C(=O)O` (stereo not shown) [CA-Threonine], in series [2], the “Φ (quantum yield)” value was 78.6%, the “λem (maximum emission wavelength)” value was determined as 436 nm, the “λex (maximum excitation wavelength)” value is 386 nm and the “ϵ (extinction coefficiency)” value stood at 418 M⁻¹ cm⁻¹.
Take `O=C(O)C1=CC(=O)N(c2ccc(S)cc2)C(=O)C1` [CA-4-Aminothiolphenol]: in series [2], the “Φ (quantum yield)” value is listed as 14.1%, the “λem (maximum emission wavelength)” value amounted to 437 nm, the “λex (maximum excitation wavelength)” value was 396 nm and the “ϵ (extinction coefficiency)” value was determined as 19.6 M⁻¹ cm⁻¹.
On to `O=C(O)CCCN1C(=O)C=C(C(=O)O)CC1=O` [CA-γ-Aminobutyric acid], for which, in series [2], the “Φ (quantum yield)” value is recorded as 22.1%, the “λem (maximum emission wavelength)” value is 422 nm, the “λex (maximum excitation wavelength)” value was 355 nm and the “ϵ (extinction coefficiency)” value was 4.9 M⁻¹ cm⁻¹.
Consider `NC(=O)CCC(C(=O)O)N1C(=O)C=C(C(=O)O)CC1=O` (stereo not shown) [CA-Glutamine], for which, in series [2], the “Φ (quantum yield)” value is recorded as 7.3%, the “λem (maximum emission wavelength)” value is recorded as 448 nm, the “λex (maximum excitation wavelength)” value was found to be 383 nm and the “ϵ (extinction coefficiency)” value turned out to be 102.4 M⁻¹ cm⁻¹.
